Test results reported in US20150004134A1, “TREATMENT OF CANCER WITH HETEROCYCLIC INHIBITORS OF GLUTAMINASE” (Calithera Biosciences, Inc., priority 2012, published 2015).

Key:
[1] = biological target: T1, recombinant form of Glutaminase 1 (GAC) (Homo sapiens, UniProt O94925); experiment: Recombinant Enzyme Assay (no preincubation); format: biochemical; settings: read-out: GAC Delta N2 IC50 no preinc;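 further: GDH-coupled GAC activity read as absorbance at 340 nm in kinetic mode over 15 min at 20 °C, slopes compared with a DMSO-only control, lower slope means inhibition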
T1 sequence (O94925 137-598 isoform O94925-3 limits assumed): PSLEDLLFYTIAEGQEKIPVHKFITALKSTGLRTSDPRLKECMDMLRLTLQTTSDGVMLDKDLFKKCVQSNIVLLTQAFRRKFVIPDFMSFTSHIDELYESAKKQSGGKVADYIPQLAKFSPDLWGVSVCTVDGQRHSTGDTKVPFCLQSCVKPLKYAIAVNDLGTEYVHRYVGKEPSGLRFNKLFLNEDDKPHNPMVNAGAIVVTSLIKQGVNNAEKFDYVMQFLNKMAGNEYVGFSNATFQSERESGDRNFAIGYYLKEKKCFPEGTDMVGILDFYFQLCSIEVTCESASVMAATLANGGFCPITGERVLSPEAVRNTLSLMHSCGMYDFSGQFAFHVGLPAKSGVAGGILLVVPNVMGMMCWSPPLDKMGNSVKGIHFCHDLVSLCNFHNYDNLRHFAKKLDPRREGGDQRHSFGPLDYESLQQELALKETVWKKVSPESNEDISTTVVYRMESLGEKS
Protocol: Compounds were assessed for their ability to inhibit the enzymatic activity of a recombinant form of Glutaminase 1 (GAC) using a biochemical assay that couples the production of glutamate (liberated by GAC) to glutamate dehydrogenase (GDH) and measuring the change in absorbance for the reduction of NAD^+ to NADH. […] Enzymatic reaction was started with the addition of 50 μL of enzyme solution (50 mM Tris-HCl pH 8.0, 0.2 mM EDTA, 150 mM K2HPO4, 0.1 mg/ml BSA, 1 mM DTT, 10 ppm antifoam, 4 units/ml GDH, 4 mM adenosine diphosphate, and 4 nM GAC) and read in a Molecular Devices M5 plate reader at 20° C. The plate reader was configured to read absorbance (λ=340 nm) in kinetic mode for 15 minutes. Data was recorded as milli-absorbance units per minute and slopes were compared to a control compound and a DMSO-only control on the same plate. Compounds with slopes less than the DMSO control were considered inhibitors and plate variability was assessed using the control compound.

[2] = biological target: T1, recombinant form of Glutaminase 1 (GAC); experiment: Recombinant Enzyme Assay - Time Dependence (60 min preincubation); format: biochemical; settings: read-out: GAC Delta N2 IC50 60 min preinc
Method in brief: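 Enzyme and compound preincubated 60 min at 20° C; reaction started with substrate buffer (50 mM Tris-HCl pH 8.0, 150 mM K2HPO4, 1 mM DTT, 20 mM L-glutamine, 2 mM NAD^+). NADH formation followed at 340 nm in kinetic mode for 15 min at 20° C; slopes (mAU/min) compared with DMSO and control-compound wells.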

P493-6 (myc "on") cells = experiment: Cell Proliferation Assay; format: cell-based; settings: P493-6, 72 h, read-out: Cell prolif P493 72 h IC50, P493 cells, 72 h
Method in brief: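 Read-out: either Cell Titer Glo or Guava Viacount flow analysis after 72 h compound treatment of myc-on P493-6 cells (10,000/well, RPMI with 10% FBS) at 37 °C. DMSO held at 0.5% final.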

Caco-2 cell monolayers = experiment: Caco-2 Permeability Assay; format: in vitro ADME; settings: for Permeability Classification: absorption potential
Excerpt: Caco-2 cells are commonly used in a confluent monolayer on a cell culture insert filter. When cultured in this format and under specific conditions, the cells become differentiated and polarized such that their phenotype, morphologically and functionally resembles the enterocytes lining the small intestine. The cell monolayer provides a physical and biochemical barrier to the passage of small molecules, and is widely used across the pharmaceutical industry as an in vitro model of the human small intestinal mucosa to predict the absorption of orally administered drugs (Hidalgo et al., Gastroenterology, 1989; Artursson, J. Pharm. Sci., 1990). The correlation between the in vitro apparent permeability (P ? app) across Caco-2 monolayers and the in vivo absorption is well established (Artursson et al., Biochem. Biophys. Res. Comm., 1991).
The present assay was used to determine the bidirectional permeability of the compounds of the invention through Caco-2 cell monolayers. Caco-2 cells were grown in confluent monolayers where the media of both the apical (A) and basolateral (B) sides were at pH 7.4. Compounds were dosed at 1 μM in the presence of 200 μM Lucifer Yellow, on the apical side (A→B) or the basolateral side (B→A) for assessment, in duplicate.
The absorption potential of compounds were classified as either Low (P-app <1×10^−6 CM/S) or High (P-app >1×10^−6 CM/S).

[3] = biological target: T2, recombinant form of glutaminase (GAC Delta N2) (Homo sapiens, UniProt O94925); experiment: Modified Recombinant Enzyme Assay - Time Dependence; format: biochemical; settings: 60 min preincubation
T2 sequence (O94925 137-598 isoform O94925-3 limits assumed): T1 sequence (O94925 137-598 isoform O94925-3 limits assumed)
Protocol: Compounds were assessed for their ability to inhibit the enzymatic activity of a recombinant form of glutaminase using a biochemical assay that couples the production of Glu (liberated by glutaminase) to GDH and measures the increase in fluorescence due to the reduction of NADP+ to NADPH.
3x-enzyme-containing solution was made by diluting recombinant glutaminase and GDH from Proteus species (Sigma Aldrich no. G4387) into glutaminase buffer to create a 6 nM glutaminase plus 18 units/mL GDH solution. […] When time-dependent effects of compound inhibition were tested, enzyme-containing solution was treated with inhibitor-containing solution for the indicated time prior to addition of substrate-containing solution.
IC50 Determination: The initial velocities of each progress curve were calculated using a straight line equation (Y=Yintercept+(slope)*X). Initial velocity values were plotted against compound concentration and fit to a four parameter dose response equation (% activity=Bottom+(Top−Bottom)/(1+10̂((LogIC50−X)*HillSlope))) to calculate an IC50 value.

Row | SMILES | IC50 [2] [nM] | Significant Efflux (Caco-2 cell monolayers) | Permeability Classification (Caco-2 cell monolayers) | IC50 [3] [nM] | further results
1 | O=C(Cc1ccccc1)Nc1ccc(CCCCc2nnc(NC(=O)Cc3ccccc3)s2)nn1 [Compound 295] | 10 | Yes (efflux ratios being significant when greater than or equal to 3 when the Papp (B→A) was greater than or equal to 1×10^−6 cm/s) | High (High (P-app >1×10^−6 CM/S)) |  | IC50 [1]: 57 nM; IC50 (P493-6 (myc "on") cells): 39 nM
2 | O=C(Cc1ccccc1)Nc1ccc(CCCCc2nnc(NC(=O)C(O)c3cccc(Cl)c3)s2)nn1 (centres unmarked) [Compound 318] | 6 | Yes (efflux ratios being significant when greater than or equal to 3 when the Papp (B→A) was greater than or equal to 1×10^−6 cm/s) | High (High (P-app >1×10^−6 CM/S)) |  | IC50 [1]: 180 nM; IC50 (P493-6 (myc "on") cells): 17 nM
3 | CC(C)(C)OC(=O)NCc1cccc(CC(=O)Nc2nnc(CCCCc3ccc(NC(=O)Cc4ccccc4)nn3)s2)c1 [Compound 339] |  | Yes (efflux ratios being significant when greater than or equal to 3 when the Papp (B→A) was greater than or equal to 1×10^−6 cm/s) | High (High (P-app >1×10^−6 CM/S)) |  | IC50 (P493-6 (myc "on") cells): 9 nM
4 | O=C(Cc1ccccc1)Nc1ccc(CCCCc2nnc(NC(=O)Cc3ccccn3)s2)nn1 [Compound 354] |  | Yes (efflux ratios being significant when greater than or equal to 3 when the Papp (B→A) was greater than or equal to 1×10^−6 cm/s) | High (High (P-app >1×10^−6 CM/S)) |  | IC50 (P493-6 (myc "on") cells): 47 nM
5 | NCc1cccc(CC(=O)Nc2ccc(CCCCc3nnc(NC(=O)Cc4ccccc4)s3)nn2)c1 [Compound 368] | 9 |  |  |  | IC50 [1]: 110 nM; IC50 (P493-6 (myc "on") cells): 17 nM
6 | CC(C)(C)OC(=O)NCc1cccc(CC(=O)Nc2nnc(CCCCc3nnc(NC(=O)Cc4ccccc4)s3)s2)c1 [Compound 375] | 5 |  |  |  | IC50 [1]: 380 nM; IC50 (P493-6 (myc "on") cells): 41 nM
7 | CCOC(=O)NCc1cccc(CC(=O)Nc2nnc(CCCCc3ccc(NC(=O)Cc4ccccc4)nn3)s2)c1 [Compound 382] | 3 |  |  |  | IC50 [1]: 99 nM; IC50 (P493-6 (myc "on") cells): 7 nM
8 | CCOC(=O)NCc1cccc(CC(=O)Nc2ccc(CCCCc3nnc(NC(=O)Cc4ccccc4)s3)nn2)c1 [Compound 384] | 3 |  |  |  | IC50 [1]: 81 nM; IC50 (P493-6 (myc "on") cells): 5 nM
9 | CC(C(=O)Nc1ccc(CCCCc2nnc(NC(=O)Cc3cccc(CNC(=O)OC(C)(C)C)c3)s2)nn1)c1ccccc1 (centres unmarked) [Compound 436] |  | Yes (efflux ratios being significant when greater than or equal to 3 when the Papp (B→A) was greater than or equal to 1×10^−6 cm/s) | High (High (P-app >1×10^−6 CM/S)) |  | 
10 | O=C(Cc1cccc(OC(F)(F)F)c1)Nc1ccc(CCCCc2nnc(NC(=O)C(O)c3cccc(Cl)c3)s2)nn1 (centres unmarked) [Compound 447] | 5 | Yes (efflux ratios being significant when greater than or equal to 3 when the Papp (B→A) was greater than or equal to 1×10^−6 cm/s) | High (High (P-app >1×10^−6 CM/S)) |  | 
11 | O=C(Cc1ccccc1Cl)Nc1ccc(CCCCc2nnc(NC(=O)Cc3ccccc3F)s2)nn1 [Compound 533] |  | Yes (efflux ratios being significant when greater than or equal to 3 when the Papp (B→A) was greater than or equal to 1×10^−6 cm/s) | High (High (P-app >1×10^−6 CM/S)) |  | 
12 | O=C(Cc1cccc(OC(F)(F)F)c1)Nc1ccc(CCCCc2nnc(NC(=O)Cc3ccccc3)s2)nn1 [Compound 585] | 6 | Yes (efflux ratios being significant when greater than or equal to 3 when the Papp (B→A) was greater than or equal to 1×10^−6 cm/s) | High (High (P-app >1×10^−6 CM/S)) |  | 
13 | CC(C(=O)Nc1nnc(CCCCc2ccc(NC(=O)Cc3ccccc3)nn2)s1)c1ccccc1 (centres unmarked) [Compound 616] | 8 | Yes (efflux ratios being significant when greater than or equal to 3 when the Papp (B→A) was greater than or equal to 1×10^−6 cm/s) | High (High (P-app >1×10^−6 CM/S)) |  | 
14 | O=C(Cc1cccc(OC(F)(F)F)c1)Nc1ccc(CCCCc2nnc(NC(=O)Cc3cccc(OC(F)(F)F)c3)s2)nn1 [Compound 660] | 25 | Yes (efflux ratios being significant when greater than or equal to 3 when the Papp (B→A) was greater than or equal to 1×10^−6 cm/s) | Low (Low (P-app <1×10^−6 CM/S)) |  | 
15 | O=C(Cc1cccc(OC(F)(F)F)c1)Nc1ccc(CCCCc2nnc(NC(=O)Cc3ccccn3)s2)nn1 [Compound 670] |  | Yes (efflux ratios being significant when greater than or equal to 3 when the Papp (B→A) was greater than or equal to 1×10^−6 cm/s) | High (High (P-app >1×10^−6 CM/S)) |  | 
16 | O=C(Cc1cccc(OC(F)(F)F)c1)Nc1ccc(CCCCc2nnc(NC(=O)Cc3cccc(F)c3)s2)nn1 [Compound 679] |  | No | High (High (P-app >1×10^−6 CM/S)) |  | 

Row | SMILES | IC50 [2] [nM] | Significant Efflux (Caco-2 cell monolayers) | Permeability Classification (Caco-2 cell monolayers) | IC50 [3] [nM] | further results
17 | O=C(Cc1cccc(OC(F)(F)F)c1)Nc1ccc(CCCCc2nnc(NC(=O)[C@@H](O)c3ccccc3)s2)nn1 [Compound 703] |  | Yes (efflux ratios being significant when greater than or equal to 3 when the Papp (B→A) was greater than or equal to 1×10^−6 cm/s) | High (High (P-app >1×10^−6 CM/S)) |  | 
18 | O=C(Cc1cccc(OC(F)(F)F)c1)Nc1ccc(CCCCc2nnc(NC(=O)[C@H](O)c3ccccc3)s2)nn1 [Compound 705] |  | Yes (efflux ratios being significant when greater than or equal to 3 when the Papp (B→A) was greater than or equal to 1×10^−6 cm/s) | High (High (P-app >1×10^−6 CM/S)) |  | 
19 | O=C(Cc1ccccn1)Nc1nnc(CCCCc2ccc(NC(=O)C(O)c3ccccc3)nn2)s1 (centres unmarked) [Compound 715] |  |  |  | 190 | 
20 | COc1ccc(OC(F)(F)F)cc1CC(=O)Nc1ccc(CCCCc2nnc(NC(=O)Cc3ccccn3)s2)nn1 [Compound 717] |  |  |  | 34 | 
21 | O=C(Cc1cc(OC(F)(F)F)ccc1O)Nc1ccc(CCCCc2nnc(NC(=O)Cc3ccccn3)s2)nn1 [Compound 718] |  |  |  | 26 | 
22 | O=C(Cc1ccc(F)c(OC(F)(F)F)c1)Nc1ccc(CCCCc2nnc(NC(=O)Cc3ccccn3)s2)nn1 [Compound 719] |  |  |  | 33 | 
23 | O=C(Cc1cc(OC(F)(F)F)ccc1F)Nc1ccc(CCCCc2nnc(NC(=O)Cc3ccccn3)s2)nn1 [Compound 720] |  |  |  | 20 | 
24 | O=C(Cc1ccc(Cl)c(OC(F)(F)F)c1)Nc1ccc(CCCCc2nnc(NC(=O)Cc3ccccn3)s2)nn1 [Compound 721] |  |  |  | 16 | 
25 | COc1ccc(CC(=O)Nc2ccc(CCCCc3nnc(NC(=O)Cc4ccccn4)s3)nn2)cc1OC(F)(F)F [Compound 722] |  |  |  | 24 | 
26 | O=C(Cc1ccc(O)c(OC(F)(F)F)c1)Nc1ccc(CCCCc2nnc(NC(=O)Cc3ccccn3)s2)nn1 [Compound 723] |  |  |  | 42 | 
27 | CC(C)(C)OC(=O)Nc1cccc(CC(=O)Nc2nnc(CCCCc3ccc(NC(=O)Cc4cccc(OC(F)(F)F)c4)nn3)s2)n1 [Compound 724] |  |  |  | 140 | 
28 | Nc1cccc(CC(=O)Nc2nnc(CCCCc3ccc(NC(=O)Cc4cccc(OC(F)(F)F)c4)nn3)s2)n1 [Compound 725] |  |  |  | 50 | 
29 | Cc1cccc(CC(=O)Nc2nnc(CCCCc3ccc(NC(=O)Cc4cccc(OC(F)(F)F)c4)nn3)s2)n1 [Compound 728] |  |  |  | 12 | 
30 | COc1cc(CC(=O)Nc2ccc(CCCCc3nnc(NC(=O)Cc4ccccn4)s3)nn2)cc(OC(F)(F)F)c1 [Compound 729] |  |  |  | 16 | 
31 | O=C(Cc1cc(O)cc(OC(F)(F)F)c1)Nc1ccc(CCCCc2nnc(NC(=O)Cc3ccccn3)s2)nn1 [Compound 730] |  |  |  | 13 | 
